{"source": "patent US11957648B2", "about": "“Method of initiating or escalating dofetilide dose and formulations therefor” (Academic Pharmaceuticals, Inc., priority 2018, dated 2024)", "origin": "cited, not measured here", "key": {"QTc interval": {"system": "QTc interval", "conditions": "slope of plasma concentration vs QTc; Sedgwick et al; cited from earlier work"}, "[1]": {"conditions": "oral dosing; cited from earlier work"}}, "data": [{"smiles": "CN(CCOc1ccc(NS(C)(=O)=O)cc1)CCc1ccc(NS(C)(=O)=O)cc1", "note": "[Dofetilide, β-((p-methanesulfonamidophenethyl)methylamino)methanesulfono-p-phenetidide]", "values": [{"measurement": "QTc change per dofetilide plasma concentration", "setting": "QTc interval", "value": "15 to 25", "unit": "ms/ng/mL"}, {"measurement": "time to reach steady state concentration", "setting": "[1]", "value": "at least 3 days"}]}]}
